Data on 18 compounds can be found in patent US9133157B2, “HIV protease inhibitors” (Merck Canada Inc., priority 2011, dated 2015).

The IC50 is the concentration needed to halve the response being measured.

The target of this experiment is WT HIV-1 protease (Human immunodeficiency virus type 1 group M subtype B (isolate HXB2) (HIV-1), UniProt P04585). The experiment in a line: Assay for inhibition of microbial expressed HIV protease (Procedure A, peptide substrate, HPLC fluorescence detection). In kind it is biochemical. To be noted: WT HIV-1 protease 10 pM, substrate 400 micromolar, pH 5.5, 30 min preincubation, 1 hour at 30° C.; read-out: Enzyme inhibition IC50. As to the method:
The inhibition of WT HIV-1 protease was studied using the reaction of the protease (expressed in Eschericia coli) with a peptide substrate [Val-Ser-Gln-Asn-(betanaphthyl)Ala-Pro-Ile-Val (SEQ ID NO:1)]. Compounds were tested using Procedure A. In Procedure A, the test compound was first preincubated with the enzyme in assay buffer (50 mM sodium acetate, pH 5.5, 100 mM NaCl, and 0.1% BSA) for 30 minutes at room temperature. Substrate was then added to 400 micromolar in a total volume of 80 microliters containing 10 picomolar HIV-1 protease and the reaction was incubated for 1 hour at 30° C. The reaction was quenched with the addition of 120 microliters of 10% phosphoric acid. The product formation was determined after separation of product and substrate on a Zorbax Eclipse XDB-C18 column (Agilent Technologies, Santa Clara, Calif.) connected to an Agilent 1100 high performance liquid chromatography system with fluorescence detection (excitation 270 nanometer and emission 330 nanometer).
In the case of `COC(=O)N[C@H](C(=O)N[C@H](c1ccc([C@@H](CO)N(C(C)C)S(=O)(=O)c2ccc3cn[nH]c3c2)s1)C(F)(F)F)C(c1ccccc1)c1ccccc1` [Example 81, Nα-(methoxycarbonyl)-β-phenyl-N-[(1S)-2,2,2-trifluoro-1-(5-{(1R)-2-hydroxy-1-[(1H-indazol-6-ylsulfonyl)(propan-2-yl)amino]ethyl}thiophen-2-yl)ethyl]-L-phenylalaninamide], the half-maximal inhibitory concentration (IC50) was 74.1 nM.
The value for `COC(=O)N[C@H](C(=O)N[C@H](c1ccc([C@@H](CO)N(CCC(C)(C)C)S(=O)(=O)c2ccc(-c3cnco3)cc2)s1)C(F)(F)F)C(c1ccccc1)c1ccccc1` [Example 90, N-[(1S)-1-(5-{(1R)-1-[(3,3-dimethylbutyl){[4-(1,3-oxazol-5-yl)phenyl]sulfonyl}amino]-2-hydroxyethyl}thiophen-2-yl)-2,2,2-trifluoroethyl]-Nα-(methoxycarbonyl)43-phenyl-L-phenylalaninamide] was 25.9 nM; that for `COC(=O)N[C@H](C(=O)NCc1cnc(C(CO)N(CCC(C)C)S(=O)(=O)c2ccccc2)s1)C(c1ccccc1)c1ccccc1` (stereo partly drawn) [Example 2, N-[(2-{2-hydroxy-1-[(3-methylbutyl)(phenylsulfonyl)amino]ethyl}-1,3-thiazol-5-yl)methyl]-Nα-(methoxycarbonyl)-β-phenyl-L-phenylalaninamide] was 250 nM; that for `COC(=O)N[C@H](C(=O)NC(C)c1ccc(C(CO)N(CCC(C)C)S(=O)(=O)c2ccccc2)s1)C(c1ccccc1)c1ccccc1` (stereo partly drawn) [Example 7, N-[1-(5-{2-hydroxy-1-[(3-methylbutyl)(phenylsulfonyl)amino]ethyl}thiophen-2-yl)ethyl]-Nα-(methoxycarbonyl)-β-phenyl-L-phenylalaninamide] was 3.5 nM.
The same measure for `[2H]C([2H])([2H])C([2H])(N([C@H](CO)c1ccc([C@@H](NC(=O)[C@@H](NC(=O)OC)C(c2ccccc2)c2ccccc2)C(F)(F)F)s1)S(=O)(=O)c1ccc2[nH]ncc2c1)C([2H])([2H])[2H]` [Example 107, Nα-(methoxycarbonyl)-β-phenyl-N-[(1S)-2,2,2-trifluoro-1-{5-[(1R)-2-hydroxy-1-1(1H-indazol-5-ylsulfonyl)[(2-^2H)propan-2-yl]amino}ethyl]thiophen-2-yl}ethyl-L-phenylalaninamide]: 23.4 nM; for `COC(=O)N[C@H](C(=O)NCc1ccc([C@@H](CO)N(Cc2nonc2C)S(=O)(=O)c2ccc(N)cc2)s1)C(c1ccccc1)c1ccccc1` [Example 18]: 6.95 nM.
With `COC(=O)N[C@H](C(=O)N[C@H](c1ccc([C@@H](CO)N(C(C)C)S(=O)(=O)c2ccc(N)cc2)s1)C(F)(F)F)C(c1ccccc1)c1ccccc1` [Example 77, N-[(1S)-1-{5-[(1R)-1-{[(4-aminophenyl)sulfonyl](propan-2-yl)amino}-2-hydroxyethyl]thiophen-2-yl}-2,2,2-trifluoroethyl]-Nα-(methoxycarbonyl)-β-phenyl-L-phenylalaninamide], the IC50 was determined as 23 nM.
The value for `COC(=O)N[C@H](C(=O)N[C@H](c1ccc([C@@H](CO)N(C(C)C)S(=O)(=O)c2ccc(C(N)=O)cc2)s1)C(F)(F)F)C(c1ccccc1)c1ccccc1` [Example 109, methyl [(1S)-2-{[(1)-1-(5-{(1R)-1-[{[4-(aminocarbonyl)phenyl]sulfonyl}(isopropyl)amino]-2-hydroxyethyl}-2-thienyl)-2,2,2-trifluoroethyl]amino}-1-(diphenylmethyl)-2-oxoethyl]carbamate] was 31.5 nM.
The value for `COC(=O)N[C@H](C(=O)N[C@H](c1ccc([C@@H](CO)N(CCC(C)(C)C)S(=O)(=O)c2ccc(N)cc2Cl)s1)C(F)(F)F)C(c1ccccc1)c1ccccc1` [Example 117, N-[(1S)-1-(5-{(1R)-1-[[(4-amino-2-chlorophenyl)sulfonyl](3,3-dimethylbutyl)amino]-2-hydroxyethyl}-2-thienyl)-2,2,2-trifluoroethyl]-Nα-(methoxycarbonyl)-β-phenyl-L-phenylalaninamide] was 0.47 nM.
The value for `COC(=O)N[C@H](C(=O)N[C@H](c1ccc([C@@H](CO)N(CCC(C)(C)C)S(=O)(=O)c2cn3ccnc3cn2)s1)C(F)(F)F)C(c1ccccc1)c1ccccc1` [Example 122, N-[(1S)-1-(5-{(1R)-1-[(3,3-dimethylbutyl)(imidazo[1,2-a]pyrazin-6-ylsulfonyl)amino]-2-hydroxyethyl}thiophen-2-yl)-2,2,2-trifluoroethyl]-Nα-(methoxycarbonyl)-β-phenyl-L-phenylalaninamide] was 5.78 nM; that for `COC(=O)N[C@H](C(=O)NCc1ccc([C@@H](CO)N(Cc2cn[nH]c2)S(=O)(=O)c2ccc3scnc3c2)s1)C(c1ccccc1)c1ccccc1` [Example 32] was 2.27 nM.
As for `CC(C)CN(C(CO)c1ccc(CNC(=O)C(NC(=O)c2ccccc2)C(c2ccccc2)c2cn(C)c3ccccc23)s1)S(=O)(=O)c1ccc2ncsc2c1` (stereo not drawn) [Example 127, N-[1-[[5-[1-(1,3-benzothiazol-6-ylsulfonyl(isobutyl)amino)-2-hydroxy-ethyl]-2-thienyl]methylcarbamoyl]-2-(1-methylindol-3-yl)-2-phenyl-ethyl]benzamide], the IC50 was 8 nM.
The same measure for `COC(=O)N[C@H](C(=O)N[C@H](c1ccc([C@@H](CO)N(CCC(C)(C)C)S(=O)(=O)c2ccc(N)cc2)s1)C(F)(F)F)C(c1ccccc1)c1ccccc1` [Example 44, N-[(1S)-1-{5-[(1R)-1-{[(4-aminophenyl)sulfonyl](3,3-dimethylbutyl)amino}-2-hydroxyethyl]thiophen-2-yl}-2,2,2-trifluoroethyl]-Nα-(methoxycarbonyl)-β-phenyl-L-phenylalaninamide]: 0.196 nM; for `COC(=O)N[C@H](C(=O)NC(C)c1ccc(C(CO)N(CCC(C)C)S(=O)(=O)c2ccc(CO)cc2)s1)C(c1ccccc1)c1ccccc1` (stereo partly drawn) [Example 8]: 0.31 nM.
The same measure for `COC(=O)N[C@H](C(=O)N[C@H](c1ccc([C@@H](CO)N(CCC(F)(F)F)S(=O)(=O)c2ccc3ncsc3c2)s1)C(F)(F)F)C(c1ccccc1)c1ccccc1` [Example 104, N-[(1S)-1-(5-{(1R)-1-[(1,3-benzothiazol-6-ylsulfonyl)(3,3,3-trifluoropropyl)amino]-2-hydroxyethyl}thiophen-2-yl)-2,2,2-trifluoroethyl]-Nα-(methoxycarbonyl)-β-phenyl-L-phenylalaninamide]: 0.85 nM; for `[2H]C([2H])([2H])C([2H])(N([C@H](CO)c1ccc([C@@H](NC(=O)[C@@H](NC(=O)OC)C(c2ccccc2)c2ccccc2)C(F)(F)F)s1)S(=O)(=O)c1ccc2ncsc2c1)C([2H])([2H])[2H]` [Example 106, N-[(1S)-1-{5-[(1R)-1-{(1,3-benzothiazol-6-ylsulfonyl)[(2-^2H)propan-2-yl]amino}-2-hydroxyethyl]thiophen-2-yl}-2,2,2-trifluoroethyl]-Nα-(methoxycarbonyl)-β-phenyl-L-phenylalaninamide]: 34.7 nM.
The same measure for `COC(=O)N[C@H](C(=O)NCc1ccc(C(CO)N(Cc2cnn(S(=O)(=O)N(C)C)c2)S(=O)(=O)c2ccc3scnc3c2)s1)C(c1ccccc1)c1ccccc1` (stereo partly drawn) [Example 30]: 5.13 nM; for `COC(=O)N[C@H](C(=O)NCc1ccc([C@@H](CO)N(CC2CC(F)(F)C2)S(=O)(=O)c2cccc(Cc3ccccn3)c2)s1)C(c1ccccc1)c1ccccc1` [Example 42]: 110 nM.
